B1: Soybean trypsin inhibitor: plant-derived trypsin inhibitor (protein, UniProt P01070 25-205, looked up)
Trypsin inhibitor A: DFVLDNEGNPLENGGTYYILSDITAFGGIRAAPTGNERCPLTVVQSRNELDKGIGTIISSPYRIRFIAEGHPLSLKFDSFAVIMLCVGIPTEWSVVEDLPEGPAVKIGENKDAMDGWFRLERVSDDEFNNYKLVFCPQQAEDDKCGDIGISIDHDDGTRRLVVSKNKPLVVQFQKLDKESL

Drawing on US6703536B2, “Disposable absorbent article having a skin care composition containing an enzyme inhibitor” (The Procter & Gamble Company, priority 1998, dated 2004), this text covers IC50 for four molecules.

Square brackets hold non-standard residues; d marks the D form. Peptide text beside a SMILES is read from it. * marks the point of attachment. Sta = CC(C)C[C@H](N)[C@@H](O)CC(=O)O; Isovaleryl = CC(C)CC(=O)*

Usually IC50 stands for the concentration that gives 50% inhibition.

The test addresses protease activity in feces. The test can be described thus: General Fecal Enzymes Method (casein-resorufin cleavage). Type of test: biochemical, infant. Conditions: fecal suspension, casein-resorufin substrate, pH 7.8, 37° C. for 60 minutes. The source says: Pooled infant feces (at least five different samples) are collected in a manner to keep them free of urine and contamination and mixed with water to obtain a weight by weight (w/w) mixture (e.g., 1:50 w/w). This mixture is then mixed thoroughly to obtain a homogeneous suspension by homogenization or sonication. […] (Also, to ensure complete linearity the final absorbance should never exceed 1.5 OD405 units). If the activity of the pooled infant feces is outside this range, it is not possible to accurately determine IC50 values for putative protease inhibitors. However, the range of enzyme activity may be adjusted by increasing or decreasing the dilution factor accordingly for each enzyme. If this is not possible, a different group of subjects should be used to obtain the sample pool.
The general method described above for obtaining a sample of feces suitable for use in Specific Fecal Enzyme Methods can be easily adapted by one skilled in the art to obtain appropriate samples of feces suitable for use in the General Fecal Enzymes Method listed below without undue experimentation.
To test the efficacy of protease inhibitors against the protease activity in feces, 50 μL of inhibitor and 50 μL of fecal suspension are added to a 1.5 mL microcentrifuge tube. The microcentrifuge tube is mixed by inversion and incubated at 25° C. for 45 minutes. Then, 50 μL of protease buffer (200 mM TRIS buffer containing 20 mM CaCl2, pH 7.8) is added to the microcentrifuge tube. The microcentrifuge tube is again mixed by inversion and incubated at 25° C. for 45 minutes. […] The microcentrifuge tube is again mixed by inversion and incubated at 37° C. for 60 minutes for the substrate cleavage reaction to take place. Then, 480 μL of trichloroacetic acid (5% w/v) is added to stop the reaction and precipitate any unreacted casein-resorufin. The microcentrifuge tube is mixed by inversion incubated at 37° C. for 15 minutes. […] Then, 400 μL of the supernatant is added to 600 μL of assay buffer (0.5 M TRIS, pH 8.8) in a cuvette. […] The same procedure is repeated without the putative inhibitor. […] Before the start of the reaction, A and Ai are nearly zero. […] The rates, vi and v, and the inhibitor concentration [I] are used to calculate IC50 according to the equation expressed above.
`CC(C)CC(=O)N[C@H](C(=O)N[C@H](C(=O)N[C@@H](CC(C)C)[C@@H](O)CC(=O)N[C@@H](C)C(=O)N[C@@H](CC(C)C)[C@@H](O)CC(=O)O)C(C)C)C(C)C` [Pepstatin A] (Isovaleryl-VV[Sta]A[Sta]-OH) showed a concentration for half-maximal inhibition (IC50) above 32 µM.

With `CC(=O)N[C@@H](CC(C)C)C(=O)N[C@@H](CC(C)C)C(=O)N[C@H](C=O)CCCNC(=N)N` [Leupeptin], the IC50 was above 320 µM.

Molecule `CC(C)C[C@H](NC(=O)[C@@H](NC(=O)N[C@@H](Cc1ccccc1)C(=O)O)[C@@H]1CCN=C(N)N1)C(=O)N[C@H](C=O)Cc1ccccc1` [Chymostatin] registered a half-maximal inhibitory concentration (IC50) of 64 µM. This lies in the double-digit micromolar range.

On to B1, for which the IC50 was found to be 4.9 µM.
